# In patent US12077503B2, “Substituted cyclic amides and their use as herbicides” (FMC CORPORATION, priority 2015, dated 2024):
# Assays:
# Assay type in all cases: in vivo
# Kochia (Kochia scoparia) [1] = test: Test A preemergence; conditions: Preemergence, 1000 g ai/ha; 0 is no effect, 100 is complete control
# In short: (§1)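 Treatment is preemergence as a directed soil spray after planting, or postemergence at the one- to two-leaf stage, with test chemical in a non-phytotoxic solvent mixture plus surfactant. Plants stay in the greenhouse about 10 d before visual injury scoring on a 0 to 100 scale versus untreated controls.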
# [2] = test system: barnyardgrass (Echinochloa crus-galli); test: Test A preemergence; conditions: for Barnyardgrass plant response rating (0 to 100 scale): Preemergence, 0 is no effect, 100 is complete control
# In short: as §1
# [3] = test system: giant foxtail (Setaria faberii); test: Test A preemergence; conditions: for Foxtail, Giant plant response rating (0 to 100 scale): Preemergence, 0 is no effect, 100 is complete control
# In short: as §1
# [4] = test system: pigweed (Amaranthus retroflexus); test: Test A preemergence; conditions: for Pigweed plant response rating (0 to 100 scale): Preemergence, 0 is no effect, 100 is complete control
# [5] = test system: ragweed (common ragweed, Ambrosia elatior); test: Test A preemergence; conditions: Preemergence, 1000 g ai/ha; 0 is no effect, 100 is complete control
# In short: as §1
# [6] = test system: ryegrass, Italian (Italian ryegrass, Lolium multiflorum); test: Test A preemergence; conditions: Preemergence, 1000 g ai/ha; 0 is no effect, 100 is complete control
# In short: as §1
# [7] = test system: Galium (catchweed bedstraw, Galium aparine); test: Test A postemergence; conditions: Galium, post-emergence, 240 h, 1000 g ai/ha, postemergence; 0 to 100 scale, 0 no effect, 100 complete control; read-out: Plant response rating, Galium
# In short: as §1
# Kochia (Kochia scoparia) [8] = test: Test A postemergence; conditions: Bassia scoparia, post-emergence, 240 h, 1000 g ai/ha, postemergence; 0 to 100 scale, 0 no effect, 100 complete control; read-out: Plant response rating, Kochia
# In short: as §1
# [9] = test system: barnyardgrass (Echinochloa crus-galli); test: Test A postemergence
# In short: as §1
# [10] = test system: blackgrass (Alopecurus myosuroides); test: Test A postemergence; conditions: Alopecurus myosuroides, post-emergence, 240 h, 1000 g ai/ha, postemergence; 0 to 100 scale, 0 no effect, 100 complete control; read-out: Plant response rating, Blackgrass
# In short: as §1
# corn (Zea mays) [11] = test: Test A postemergence
# In short: as §1
# [12] = test system: giant foxtail (Setaria faberii); test: Test A postemergence
# In short: as §1
# [13] = test system: morningglory (Ipomoea spp.); test: Test A postemergence
# In short: as §1
# [14] = test system: pigweed (Amaranthus retroflexus); test: Test A postemergence
# In short: as §1
# [15] = test system: ragweed (common ragweed, Ambrosia elatior); test: Test A postemergence; conditions: Ambrosia artemisiifolia, post-emergence, 240 h, 1000 g ai/ha, postemergence; 0 to 100 scale, 0 no effect, 100 complete control; read-out: Plant response rating, Ragweed
# In short: as §1
# [16] = test system: ryegrass, Italian (Italian ryegrass, Lolium multiflorum); test: Test A postemergence; conditions: Lolium multiflorum, post-emergence, 240 h, 1000 g ai/ha, postemergence; 0 to 100 scale, 0 no effect, 100 complete control; read-out: Plant response rating, Ryegrass, Italian
# In short: as §1
# [17] = test system: wheat (Triticum aestivum); test: Test A postemergence
# In short: as §1
# corn (Zea mays) [18] = test: Test A preemergence
# In short: as §1
# [19] = test system: crabgrass, large (Digitaria sanguinalis); test: Test A preemergence
# In short: as §1
# [20] = test system: velvetleaf (Abutilon theophrasti); test: Test A preemergence
# In short: as §1
# [21] = test system: wheat (Triticum aestivum); test: Test A preemergence
# In short: as §1
# [22] = test system: crabgrass, large (Digitaria sanguinalis); test: Test A postemergence
# In short: as §1
# [23] = test system: velvetleaf (Abutilon theophrasti); test: Test A postemergence
# In short: as §1
# [24] = test system: barnyardgrass (Echinochloa crus-galli); test: Test C flooded paddy test; conditions: Flood, 0 is no effect, 100 is complete control
# In short: (§2)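 Scores express visual response relative to untreated controls, 0 meaning no effect and 100 complete control, assessed 13 to 15 d after treatment in the greenhouse. Compound went into water flooded 3 cm above soil around 2-leaf plants.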
# [25] = test system: ducksalad (Heteranthera limosa); test: Test C flooded paddy test; conditions: Flood, 0 is no effect, 100 is complete control
# In short: as §2
# rice (Oryza sativa) = test: Test C flooded paddy test; conditions: Flood, 0 is no effect, 100 is complete control
# In short: as §2
# [26] = test system: sedge, umbrella (small-flower umbrella sedge, Cyperus difformis); test: Test C flooded paddy test; conditions: Flood, 0 is no effect, 100 is complete control
# In short: as §2
# [27] = 125 g ai/ha, preemergence, 0 to 100 scale (0 no effect, 100 complete control)
# [28] = Preemergence, 500 g ai/ha, 0 is no effect, 100 is complete control
# [29] = 500 g ai/ha, postemergence, 0 to 100 scale, 0 no effect, 100 complete control
# [30] = Postemergence, 125 g ai/ha, visual injury, 0 to 100 scale (0 no effect, 100 complete control), approx. 10 d
compound,measurement,setting,value
O=C(CN1C[C@H](c2cc(F)cc(F)c2)[C@@H](C(=O)Nc2cccc(F)c2F)C1=O)c1ccccc1 [Compound 784],Kochia plant response rating (0 to 100 scale),Kochia (Kochia scoparia) [1],0
same,Barnyardgrass plant response rating (0 to 100 scale),[2]; 1000 g ai/ha,80
same,"Foxtail, Giant plant response rating (0 to 100 scale)",[3]; 1000 g ai/ha,90
same,Pigweed plant response rating (0 to 100 scale),[4]; 1000 g ai/ha,0
same,Ragweed plant response rating (0 to 100 scale),[5],0
same,"Ryegrass, Italian plant response rating (0 to 100 scale)",[6],0
same,pest or weed control at 1000 g/ha,[7],0%
same,pest or weed control at 1000 g/ha,Kochia (Kochia scoparia) [8],0%
same,pest or weed control at 1000 g/ha,"[9]; Echinochloa crus-galli, post-emergence, 240 h, 1000 g ai/ha, postemergence, 0 to 100 scale, 0 no effect, 100 complete control, read-out: Plant response rating, Barnyardgrass",90%
same,pest or weed control at 1000 g/ha,[10],20%
same,"Corn plant response rating (crop injury, 0 = no effect, 100 = complete kill) at 1000 g/ha","corn (Zea mays) [11]; Zea mays, post-emergence, 240 h, 1000 g ai/ha, postemergence, 0 to 100 scale, 0 no effect, 100 complete control",0%
same,pest or weed control at 1000 g/ha,"[12]; Setaria faberi, post-emergence, 240 h, 1000 g ai/ha, postemergence, 0 to 100 scale, 0 no effect, 100 complete control, read-out: Plant response rating, Foxtail, Giant",90%
same,pest or weed control at 1000 g/ha,"[13]; Ipomoea, post-emergence, 240 h, 1000 g ai/ha, postemergence, 0 to 100 scale, 0 no effect, 100 complete control, read-out: Plant response rating, Morningglory",0%
same,pest or weed control at 1000 g/ha,"[14]; Amaranthus retroflexus, post-emergence, 240 h, 1000 g ai/ha, postemergence, 0 to 100 scale, 0 no effect, 100 complete control, read-out: Plant response rating, Pigweed",0%
same,pest or weed control at 1000 g/ha,[15],0%
same,pest or weed control at 1000 g/ha,[16],0%
same,plant injury at 1000 g/ha,"[17]; Triticum aestivum, post-emergence, 240 h, 1000 g ai/ha, postemergence, 0 to 100 scale, 0 no effect, 100 complete control, read-out: Plant response rating, Wheat",0%
O=C1NCC(c2cccnc2)C1C(=O)Nc1ccccc1F (racemic) [Compound 363],"Plant response rating, Barnyardgrass",[2]; [27],0
same,Barnyardgrass plant response rating (0 to 100 scale),[2]; 500 g ai/ha,0
same,"Plant response rating, Corn",corn (Zea mays) [18]; [27],0
same,Corn plant response rating (0 to 100 scale),corn (Zea mays) [18]; [28],0
same,"Plant response rating, Crabgrass, Large",[19]; [27],0
same,"Crabgrass, Large plant response rating (0 to 100 scale)",[19]; [28],0
same,"Plant response rating, Foxtail, Giant",[3]; [27],0
same,"Foxtail, Giant plant response rating (0 to 100 scale)",[3]; 500 g ai/ha,0
same,"Plant response rating, Pigweed",[4]; [27],0
same,Pigweed plant response rating (0 to 100 scale),[4]; 500 g ai/ha,0
same,"Plant response rating, Velvetleaf",[20]; [27],0
same,Velvetleaf plant response rating (0 to 100 scale),[20]; [28],0
same,"Plant response rating, Wheat",[21]; [27],0
same,Wheat plant response rating (0 to 100 scale),[21]; [28],0
same,"Plant response rating, Barnyardgrass",[9]; [29],0
same,"Plant response rating, Barnyardgrass",[9]; [30],0
same,"Plant response rating, Corn",corn (Zea mays) [11]; [29],0
same,"Plant response rating, Corn",corn (Zea mays) [11]; [30],0
same,"Plant response rating, Crabgrass, Large",[22]; [29],0
same,"Plant response rating, Crabgrass, Large",[22]; [30],0
same,"Plant response rating, Foxtail, Giant",[12]; [29],0
same,"Plant response rating, Foxtail, Giant",[12]; [30],0
same,"Plant response rating, Morningglory",[13]; [29],0
same,"Plant response rating, Morningglory",[13]; [30],0
same,"Plant response rating, Pigweed",[14]; [29],0
same,"Plant response rating, Pigweed",[14]; [30],0
same,"Plant response rating, Velvetleaf",[23]; [29],10
same,"Plant response rating, Velvetleaf",[23]; [30],0
same,"Plant response rating, Wheat",[17]; [29],0
same,"Plant response rating, Wheat",[17]; [30],0
same,"Plant response rating (scale of 0 to 100), Barnyardgrass",[24]; 31 g ai/ha,0
same,"Plant response rating (scale of 0 to 100), Barnyardgrass",[24]; 62 g ai/ha,0
same,"Plant response rating (scale of 0 to 100), Barnyardgrass",[24]; 125 g ai/ha,0
same,"Plant response rating (scale of 0 to 100), Barnyardgrass",[24]; 250 g ai/ha,0
same,"Plant response rating (scale of 0 to 100), Ducksalad",[25]; 31 g ai/ha,0
same,"Plant response rating (scale of 0 to 100), Ducksalad",[25]; 62 g ai/ha,0
same,"Plant response rating (scale of 0 to 100), Ducksalad",[25]; 125 g ai/ha,0
same,"Plant response rating (scale of 0 to 100), Ducksalad",[25]; 250 g ai/ha,0
same,"Plant response rating (scale of 0 to 100), Rice",rice (Oryza sativa); 31 g ai/ha,0
same,"Plant response rating (scale of 0 to 100), Rice",rice (Oryza sativa); 62 g ai/ha,0
same,"Plant response rating (scale of 0 to 100), Rice",rice (Oryza sativa); 125 g ai/ha,0
same,"Plant response rating (scale of 0 to 100), Rice",rice (Oryza sativa); 250 g ai/ha,0
same,"Plant response rating (scale of 0 to 100), Sedge, Umbrella",[26]; 31 g ai/ha,0
same,"Plant response rating (scale of 0 to 100), Sedge, Umbrella",[26]; 62 g ai/ha,0
same,"Plant response rating (scale of 0 to 100), Sedge, Umbrella",[26]; 125 g ai/ha,0
same,"Plant response rating (scale of 0 to 100), Sedge, Umbrella",[26]; 250 g ai/ha,0
